Reference: patent US20030096237A1, “Determination of the ability of patients to respond to a tumor treatment” (priority 2000, published 2003)

Tested on: CNCM I-2546
Test: oligonucleotide array analysis of IFN-α modulated gene expression
Assay type: cell-based, human
Parameters: key to nAD M94880 mhc class i (hla-a*8001): normalized average difference between perfect and mismatch probeset signals
Method: All these cell lines were cultured in RPMI medium supplemented with 10% FCS, glutamine (2 mM), sodium pyruvate (1 mM), non-essential amino acids and HEPES buffer (10 mM) (all from GIBCO Life Sciences, Paisley, UK). When confluent, the cells were passaged by trypsinization.
Cultured melanoma cells were harvested by scraping and total cellular RNA was extracted. 10 μg from each sample were used directly as templates for cDNA synthesis using a commercial kit (Roche Molecular Biochemicals, Rotkreuz, Switzerland). The T7 promoter sequence incorporated into the cDNA synthesis primer allowed template amplification and biotin labeling by in vitro transcription using a commercial kit (Affymetrix, Santa Clara, Calif.). After alkaline heat fragmentation […] was hybridised to the array (Affymetrix, Santa Clara, Calif.) and all subsequent steps were performed following standard procedures as supplied with the arrays. Raw data were collected with a confocal laser scanner (Hewlett Packard, Palo Alto, Calif.) using GeneChip software v3.1 (Affymetrix, Santa Clara, Calif.).
Raw data were normalized based on the total chip signal obtained upon hybridisation of ME15 cell line cDNA. This array was selected because: i) the 5′/3′ intensity ratio of control genes was smaller than 3; ii)>25% of the genes are called “present” by Genechip; iii) the image appearance is homogeneous with low background and no sign of mechanical chip damage.
The normalized average difference (nAD) between the signals of the perfect and of the mismatch probesets for each gene was used as the expression level of a given gene. At least one nAD value in a pairwise comparison of data has to exceed 50 to be included. Based on nAD, change factors related to IFN-α exposure were also calculated. Negative nAD values were set to 20 in order to avoid the calculation of artificially high modifications. In order to exclude artefacts, only genes with robust change factors, greater than 2-fold, were included in the analysis. […] Genes were clustered according to their mode of regulation.
Total cellular RNA was extracted from the sensitive and resistant melanoma cell lines identified above, reverse transcribed and processed for hybridization to an oligonucleotide array (Hu6800FL, PN 900183) containing probe sets derived from 7000 full-length human genes. Expression levels for each gene were calculated as normalized average difference (nAD, see materials and methods).
Patterns of genes expressed in IFN-α sensitive and resistant melanoma cell lines were investigated upon 48 hour culture in the presence of IFN-α. CNCM I-2546 and CNCM I-2545 were studied in detail.
In Table 2 below, CNCM I-2546 and CNCM I-2545 cultured for 48 hours in the absence or in the presence of 100 U/ml IFN-α were used to assay cytokine modulated gene expression as matched with data obtained in fibrosarcoma cells. This analysis yielded six clusters of genes. […] Data are presented as average difference of signal intensity between match and mismatch probesets.
In Table 3 below, CNCM I-2546 and CNCM I-2545 cell lines cultured for 48 hours in the absence or in the presence of 100 U/ml IFN-α were used to identify novel cytokine induced genes whose expression was not found to be modulated in fibrosarcoma cells. Cluster 1 includes genes inducible in the CNCM I-2546 sensitive but not in the CNCM I-2545 resistant cell line. Cluster 2 comprises genes inducible in both lines. Data are presented as average difference of signal intensity between match and mismatch probesets.

[1] = CNCM I-2546 (+) IFN-α 100 U/ml 48 hours, (−) 0
[2] = CNCM I-2546 (+) IFN-α 100 U/ml 48 hours, (−) 24
[3] = CNCM I-2546 (+) IFN-α 100 U/ml 48 hours, (−) 43
[4] = CNCM I-2546 (+) IFN-α 100 U/ml 48 hours, (−) 55
[5] = CNCM I-2546 (+) IFN-α 100 U/ml 48 hours, (−) 77
[6] = CNCM I-2546 (+) IFN-α 100 U/ml 48 hours, (−) 107
[7] = CNCM I-2546 (+) IFN-α 100 U/ml 48 hours, (−) 110
[8] = CNCM I-2546 (+) IFN-α 100 U/ml 48 hours, (−) 150

IFN-α
nAD L37043 casein kinase i epsilon [1]: 441 | nAD L40387 thyroid receptor interactor (trip14) [1]: 85 | nAD U51127 interferon regulatory factor 5 (CNCM I-2546 (+) IFN-α 100 U/ml 48 hours, (−) 3): 116 | nAD Z56281 interferon regulatory factor 3 (CNCM I-2546 (+) IFN-α 100 U/ml 48 hours, (−) 12): 136 | nAD M98343 amplaxin (ems1) (CNCM I-2546 (+) IFN-α 100 U/ml 48 hours, (−) 15): 141 | nAD J03909 gamma-interferon-inducible protein (ip-30) (CNCM I-2546 (+) IFN-α 100 U/ml 48 hours, (−) 18): 57 | nAD D32050 alanyl-trna synthetase (CNCM I-2546 (+) IFN-α 100 U/ml 48 hours, (−) 21): 427 | nAD M60784 ul snrnp-specific protein [2]: 216 | nAD X57351 1-8d gene from interferon-inducible gene family [2]: 297 | nAD D28137 bst-2 (CNCM I-2546 (+) IFN-α 100 U/ml 48 hours, (−) 28): 305 | nAD S81914 iex-1 = radiation-inducible immediate-early gene (CNCM I-2546 (+) IFN-α 100 U/ml 48 hours, (−) 31): 312 | nAD X96401 rox protein (CNCM I-2546 (+) IFN-α 100 U/ml 48 hours, (−) 34): 143 | nAD M79462 pml-1 [3]: 1 | nAD U22970 16-jun gene, interferon-inducible peptide (6-16) [3]: 2363 | nAD L42243 ifnar2 gene (interferon receptor) (CNCM I-2546 (+) IFN-α 100 U/ml 48 hours, (−) 46): −4 | nAD U52513 rig-g (CNCM I-2546 (+) IFN-α 100 U/ml 48 hours, (−) 49): 96 | nAD K01900 lymphocyte interferon alpha type 201 [4]: 85 | nAD M19650 2′,3′-cyclic nucleotide 3prime-phosphodiesterase [4]: 269 | nAD X95325 dna binding protein a variant (CNCM I-2546 (+) IFN-α 100 U/ml 48 hours, (−) 58): 375 | nAD X15949 interferon regulatory factor-2 (irf-2) (CNCM I-2546 (+) IFN-α 100 U/ml 48 hours, (−) 67): 11 | nAD Z26491 gene catechol o-methyltransferase (CNCM I-2546 (+) IFN-α 100 U/ml 48 hours, (−) 73): 337 | nAD U69126 fuse binding protein 2 (fbp2) [5]: 302 | nAD X76538 mpv17 [5]: 313 | nAD U50327 protein kinase c substrate 80k-h gene (prkcsh) (CNCM I-2546 (+) IFN-α 100 U/ml 48 hours, (−) 80): 312 | nAD U09579 melanoma differentiation associated (mda-6) (CNCM I-2546 (+) IFN-α 100 U/ml 48 hours, (−) 83): 361 | nAD U70063 human acid ceramidase (CNCM I-2546 (+) IFN-α 100 U/ml 48 hours, (−) 86): 221 | nAD Y00264 amyloid a4 precursor (CNCM I-2546 (+) IFN-α 100 U/ml 48 hours, (−) 89): 304 | nAD L35249 vacuolar h + -atpase mr 56,000 subunit (ho57) (CNCM I-2546 (+) IFN-α 100 U/ml 48 hours, (−) 92): 227 | nAD U41515 dss1 (CNCM I-2546 (+) IFN-α 100 U/ml 48 hours, (−) 104): 51 | nAD U18018 ela enhancer binding protein (ela-f) [6]: 340 | nAD X04412 plasma gelsolin [6]: 372 | nAD D50914 EST [7]: 359 | nAD U65579 mitochondrial nadh dehydrogenase-ubiquinone [7]: 377 | nAD U72206 guanine nucleotide regulatory factor (lfp40) (CNCM I-2546 (+) IFN-α 100 U/ml 48 hours, (−) 113): 459 | nAD D78132 rheb gene, ras-related gtp binding protein gene (CNCM I-2546 (+) IFN-α 100 U/ml 48 hours, (−) 119): 307 | nAD X70848 protein phosphatase 1, catalytic subunit (CNCM I-2546 (+) IFN-α 100 U/ml 48 hours, (−) 122): 370 | nAD M31013 nonmuscle myosin heavy chain (nmhc) (CNCM I-2546 (+) IFN-α 100 U/ml 48 hours, (−) 132): 441 | nAD J00212 leukocyte interferon (ifn-alpha) (CNCM I-2546 (+) IFN-α 100 U/ml 48 hours, (−) 138): 49 | nAD U91316 acyl-coa thioester hydrolase (CNCM I-2546 (+) IFN-α 100 U/ml 48 hours, (−) 141): 706 | nAD D49824 hla-b null allele (CNCM I-2546 (+) IFN-α 100 U/ml 48 hours, (−) 144): 925 | nAD HG2917 major histocompatibility complex, class i, e (CNCM I-2546 (+) IFN-α 100 U/ml 48 hours, (−) 147): 813 | nAD D21235 hhr23a protein [8]: 582 | nAD U61263 acetolactate synthase homolog [8]: 464 | nAD M65028 heterogeneous nuclear ribonucleoprotein a/b (CNCM I-2546 (+) IFN-α 100 U/ml 48 hours, (−) 153): 326 | nAD HG658 major histocompatibility complex, class 1 c (CNCM I-2546 (+) IFN-α 100 U/ml 48 hours, (−) 156): 1692 | nAD J04182 lysosomal membrane glycoprotein-1 (lamp1) (CNCM I-2546 (+) IFN-α 100 U/ml 48 hours, (−) 168): 452 | nAD L07633 interferon-gamma (CNCM I-2546 (+) IFN-α 100 U/ml 48 hours, (−) 184): 463 | nAD U18009 chromosome 17q21 clone lf113 (CNCM I-2546 (+) IFN-α 100 U/ml 48 hours, (−) 187): 735 | nAD U47025 fetal brain glycogen phosphorylase b (CNCM I-2546 (+) IFN-α 100 U/ml 48 hours, (−) 193): 924 | nAD M94880 mhc class i (hla-a*8001) (CNCM I-2546 (+) IFN-α 100 U/ml 48 hours, (−) 202): 932 | nAD J00105 beta-2 microglobulin gene (CNCM I-2546 (+) IFN-α 100 U/ml 48 hours, (−) 248): 1453 | nAD Z47055 farnesyl pyrophosphate synthetase like (CNCM I-2546 (+) IFN-α 100 U/ml 48 hours, (−) 263): 529 | nAD U78525 human eukaryotic translation initiation factor (eif3) (CNCM I-2546 (+) IFN-α 100 U/ml 48 hours, (−) 275): 589 | nAD U65932 extracellular matrix protein 1 (ecm1) (CNCM I-2546 (+) IFN-α 100 U/ml 48 hours, (−) 300): 907 | nAD J04444 cytochrome c-1 gene (CNCM I-2546 (+) IFN-α 100 U/ml 48 hours, (−) 309): 1286 | nAD HG1612 macmarcks (CNCM I-2546 (+) IFN-α 100 U/ml 48 hours, (−) 401): 1440 | nAD X90846 mixed lineage kinase 2 (CNCM I-2546 (+) IFN-α 100 U/ml 48 hours, (−) 425): 173 | nAD M34338 spermidine synthase (CNCM I-2546 (+) IFN-α 100 U/ml 48 hours, (−) 429): 1413 | nAD L13210 mac-2 binding protein (CNCM I-2546 (+) IFN-α 100 U/ml 48 hours, (−) 444): 2016 | nAD K03515 neuroleukin (CNCM I-2546 (+) IFN-α 100 U/ml 48 hours, (−) 487): 2126 | nAD M30818 interferon-induced cellular resistance mediator protein (CNCM I-2546 (+) IFN-α 100 U/ml 48 hours, (−) 756): 155 | nAD U72882 interferon-induced leucine zipper protein (ifp35) (CNCM I-2546 (+) IFN-α 100 U/ml 48 hours, (−) −9): 502 | nAD U53830 interferon regulatory factor 7a (CNCM I-2546 (+) IFN-α 100 U/ml 48 hours, (−) −31): 237 | nAD M97935 transcription factor isgf-3 (CNCM I-2546 (+) IFN-α 100 U/ml 48 hours, (−) −37): 296 | nAD X57522 ring4 cdna (CNCM I-2546 (+) IFN-α 100 U/ml 48 hours, (−) −49): 97 | nAD X07730 prostate specific antigen (CNCM I-2546 (+) IFN-α 100 U/ml 48 hours, (−) −64): 132 | nAD U50648 interferon-inducible rna-dependent protein kinase (pkr) (CNCM I-2546 (+) IFN-α 100 U/ml 48 hours, (−) −70): 71 | nAD U01824 glutamate/aspartate transporter (CNCM I-2546 (+) IFN-α 100 U/ml 48 hours, (−) −73): 91 | nAD J04164 interferon-inducible protein 27-sep (CNCM I-2546 (+) IFN-α 100 U/ml 48 hours, (−) −89): 2066 | nAD M92642 alpha-1 type xvi collagen (col16a1) (CNCM I-2546 (+) IFN-α 100 U/ml 48 hours, (−) −147): −133 | nAD M13755 interferon-induced 17-kda/15-kda protein (CNCM I-2546 (+) IFN-α 100 U/ml 48 hours, (−) −181): 716 | nAD X67325 p27 (CNCM I-2546 (+) IFN-α 100 U/ml 48 hours, (−) −211): 410 | change factor (CF) D21235 hhr23a protein (CNCM I-2546, IFN-α 100 U/ml 48 hours): 2.88
